Measured values published in publication PMC5765548 (Journal of medicinal chemistry, 2017).

Experiments:
ALDH1L1 (rat) = molecular target: T1, ALDH1L1 (rat) (Rattus norvegicus, UniProt P28037); assay: ALDH1L1 dehydrogenase activity, NADPH formation at 340 nm; format: biochemical; conditions: read-out: IC50 ALDH1L1 (rat); 4 mM propionaldehyde, 500 μM NADP+
T1 sequence (P28037 1-902): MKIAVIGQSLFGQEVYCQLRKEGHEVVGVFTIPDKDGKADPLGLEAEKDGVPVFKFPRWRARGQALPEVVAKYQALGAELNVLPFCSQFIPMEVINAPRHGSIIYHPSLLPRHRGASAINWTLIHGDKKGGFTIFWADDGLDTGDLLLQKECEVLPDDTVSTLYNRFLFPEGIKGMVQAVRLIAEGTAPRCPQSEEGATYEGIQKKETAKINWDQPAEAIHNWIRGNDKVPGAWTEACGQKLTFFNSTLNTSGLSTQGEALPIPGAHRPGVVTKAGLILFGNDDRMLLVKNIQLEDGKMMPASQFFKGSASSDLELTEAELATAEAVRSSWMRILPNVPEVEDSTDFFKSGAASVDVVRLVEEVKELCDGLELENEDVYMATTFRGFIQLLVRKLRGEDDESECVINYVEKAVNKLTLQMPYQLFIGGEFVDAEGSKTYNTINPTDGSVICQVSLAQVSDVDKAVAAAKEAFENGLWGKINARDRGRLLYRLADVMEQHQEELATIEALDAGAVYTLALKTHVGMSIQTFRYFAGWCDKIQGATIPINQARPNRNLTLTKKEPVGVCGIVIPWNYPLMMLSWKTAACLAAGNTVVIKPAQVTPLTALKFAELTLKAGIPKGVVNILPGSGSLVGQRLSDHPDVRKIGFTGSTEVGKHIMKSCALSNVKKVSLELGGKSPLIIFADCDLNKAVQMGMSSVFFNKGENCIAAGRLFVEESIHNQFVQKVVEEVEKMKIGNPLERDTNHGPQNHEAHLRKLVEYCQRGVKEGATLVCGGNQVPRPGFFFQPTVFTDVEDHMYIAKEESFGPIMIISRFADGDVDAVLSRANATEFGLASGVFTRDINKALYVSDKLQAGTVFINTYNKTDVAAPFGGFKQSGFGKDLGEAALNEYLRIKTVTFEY

ALDH3A1 = molecular target: T2, ALDH3A1 (Homo sapiens, UniProt P30838); assay: ALDH3A1 dehydrogenase activity; format: biochemical; conditions: read-out: IC50 ALDH3A1; 300 μM benzaldehyde, 300 μM NADP+, pH 7.5
T2 sequence (P30838 1-453): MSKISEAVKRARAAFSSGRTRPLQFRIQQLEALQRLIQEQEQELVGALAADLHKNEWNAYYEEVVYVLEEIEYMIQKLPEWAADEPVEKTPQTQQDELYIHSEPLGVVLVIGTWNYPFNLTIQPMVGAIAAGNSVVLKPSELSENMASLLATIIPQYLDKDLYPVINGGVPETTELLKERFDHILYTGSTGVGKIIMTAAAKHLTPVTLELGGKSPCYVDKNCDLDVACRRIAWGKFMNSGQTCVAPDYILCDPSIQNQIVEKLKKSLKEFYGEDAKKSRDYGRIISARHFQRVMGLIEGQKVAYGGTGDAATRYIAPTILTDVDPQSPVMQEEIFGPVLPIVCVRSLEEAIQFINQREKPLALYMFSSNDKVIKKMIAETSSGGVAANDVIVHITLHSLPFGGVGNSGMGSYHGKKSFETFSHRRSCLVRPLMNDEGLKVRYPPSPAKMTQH

ALDH2 [1] = molecular target: T3, ALDH2 (Homo sapiens, UniProt P05091); conditions: 1 mM propionaldehyde
T3 sequence (P05091 18-517): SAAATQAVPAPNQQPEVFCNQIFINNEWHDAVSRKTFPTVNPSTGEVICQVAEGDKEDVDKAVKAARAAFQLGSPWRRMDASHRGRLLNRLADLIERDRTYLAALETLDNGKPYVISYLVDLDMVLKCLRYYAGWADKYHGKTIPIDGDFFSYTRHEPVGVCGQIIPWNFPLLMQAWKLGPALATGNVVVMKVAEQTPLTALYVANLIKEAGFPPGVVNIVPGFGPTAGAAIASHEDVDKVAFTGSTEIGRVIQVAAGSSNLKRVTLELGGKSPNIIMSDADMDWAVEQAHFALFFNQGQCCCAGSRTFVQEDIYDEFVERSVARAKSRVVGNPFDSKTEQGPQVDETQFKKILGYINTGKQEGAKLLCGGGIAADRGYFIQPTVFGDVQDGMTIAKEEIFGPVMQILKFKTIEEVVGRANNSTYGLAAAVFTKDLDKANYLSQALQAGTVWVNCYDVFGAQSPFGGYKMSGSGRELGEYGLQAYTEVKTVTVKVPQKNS

ALDH1A1 = molecular target: T4, ALDH1A1 (Homo sapiens, UniProt P00352); assay: ALDH1A1 dehydrogenase activity, NADH formation at 340 nm; format: biochemical; conditions: read-out: IC50 ALDH1A1; 100 μM propionaldehyde, 200 μM NAD+, 1% DMSO, pH 7.5, 25 °C
T4 sequence (P00352 1-501): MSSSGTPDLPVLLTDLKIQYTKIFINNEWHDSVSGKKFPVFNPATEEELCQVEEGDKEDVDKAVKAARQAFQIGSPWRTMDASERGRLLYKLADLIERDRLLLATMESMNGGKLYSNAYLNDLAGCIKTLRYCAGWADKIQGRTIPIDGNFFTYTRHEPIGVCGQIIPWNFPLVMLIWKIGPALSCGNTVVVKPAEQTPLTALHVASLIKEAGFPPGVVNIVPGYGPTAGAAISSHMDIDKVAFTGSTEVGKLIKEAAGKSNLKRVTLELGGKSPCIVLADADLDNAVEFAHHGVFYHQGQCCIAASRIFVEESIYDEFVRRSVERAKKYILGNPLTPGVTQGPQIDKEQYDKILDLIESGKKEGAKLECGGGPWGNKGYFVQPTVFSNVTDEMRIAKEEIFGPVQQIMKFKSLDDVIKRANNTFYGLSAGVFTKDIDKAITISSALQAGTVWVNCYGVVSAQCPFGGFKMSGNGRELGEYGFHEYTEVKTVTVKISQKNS

ALDH2 [2] = molecular target: T3, ALDH2; conditions: prior work; cited from earlier work
ALDH1A2 = molecular target: T5, ALDH1A2 (Homo sapiens, UniProt O94788); conditions: read-out: IC50 ALDH1A2; 100 μM propionaldehyde, 200 μM NAD+, 1% DMSO, pH 7.5, 25 °C
T5 sequence (O94788 1-518): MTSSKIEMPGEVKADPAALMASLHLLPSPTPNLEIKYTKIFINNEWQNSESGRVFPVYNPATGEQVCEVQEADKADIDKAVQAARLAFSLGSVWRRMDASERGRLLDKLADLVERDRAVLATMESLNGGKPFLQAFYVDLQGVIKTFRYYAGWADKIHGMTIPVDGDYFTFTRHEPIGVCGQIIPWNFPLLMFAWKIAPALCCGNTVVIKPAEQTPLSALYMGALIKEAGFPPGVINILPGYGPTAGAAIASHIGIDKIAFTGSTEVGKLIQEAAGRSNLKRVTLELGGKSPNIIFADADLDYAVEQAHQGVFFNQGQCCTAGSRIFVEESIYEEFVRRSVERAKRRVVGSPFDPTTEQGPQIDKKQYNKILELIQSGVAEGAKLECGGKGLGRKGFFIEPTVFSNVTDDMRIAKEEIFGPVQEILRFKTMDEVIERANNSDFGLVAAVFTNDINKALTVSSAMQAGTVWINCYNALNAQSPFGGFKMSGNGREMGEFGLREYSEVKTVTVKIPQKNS

ALDH1B1 = molecular target: T6, ALDH1B1 (Homo sapiens, UniProt P30837); conditions: read-out: IC50 ALDH1B1; 200 μM propionaldehyde, 500 μM NAD+, 25 °C
T6 sequence (P30837 18-517): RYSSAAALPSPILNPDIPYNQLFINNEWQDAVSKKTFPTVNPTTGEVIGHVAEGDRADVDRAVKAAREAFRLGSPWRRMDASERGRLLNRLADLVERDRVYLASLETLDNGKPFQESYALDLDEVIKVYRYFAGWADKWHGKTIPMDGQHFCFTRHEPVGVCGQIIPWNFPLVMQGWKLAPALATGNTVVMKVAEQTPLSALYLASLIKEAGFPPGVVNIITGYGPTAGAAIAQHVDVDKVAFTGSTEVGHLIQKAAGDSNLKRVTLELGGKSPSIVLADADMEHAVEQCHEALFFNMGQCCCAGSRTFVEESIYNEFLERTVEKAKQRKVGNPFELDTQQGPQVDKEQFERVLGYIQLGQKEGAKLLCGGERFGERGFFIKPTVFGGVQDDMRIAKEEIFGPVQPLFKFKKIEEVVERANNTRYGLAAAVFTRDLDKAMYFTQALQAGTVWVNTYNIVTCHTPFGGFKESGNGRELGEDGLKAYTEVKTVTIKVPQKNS

ALDH1A3 = molecular target: T7, ALDH1A3 (Homo sapiens, UniProt P47895); conditions: read-out: IC50 ALDH1A3; 100 μM propionaldehyde, 200 μM NAD+, 1% DMSO, pH 7.5, 25 °C
T7 sequence (P47895 1-512): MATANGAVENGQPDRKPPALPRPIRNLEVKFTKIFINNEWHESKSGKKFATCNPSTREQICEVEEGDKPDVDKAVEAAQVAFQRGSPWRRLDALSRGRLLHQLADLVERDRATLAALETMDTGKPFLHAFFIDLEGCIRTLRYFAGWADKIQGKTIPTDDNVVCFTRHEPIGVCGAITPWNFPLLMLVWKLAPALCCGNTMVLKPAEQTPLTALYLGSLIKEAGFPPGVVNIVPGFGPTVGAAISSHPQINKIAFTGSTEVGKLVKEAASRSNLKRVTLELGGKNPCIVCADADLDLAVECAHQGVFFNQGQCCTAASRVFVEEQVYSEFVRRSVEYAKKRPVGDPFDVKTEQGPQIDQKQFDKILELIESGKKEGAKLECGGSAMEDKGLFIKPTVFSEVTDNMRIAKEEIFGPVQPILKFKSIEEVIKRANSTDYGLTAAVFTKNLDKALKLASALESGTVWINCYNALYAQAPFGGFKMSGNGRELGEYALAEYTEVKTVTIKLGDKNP

ALDH2 [3] = molecular target: T3, ALDH2; assay: ALDH2 dehydrogenase activity, NADH formation at 340 nm; format: biochemical; conditions: read-out: Max inhibition ALDH2

SMILES | IC50 (ALDH1L1 (rat)) [µM] | IC50 (ALDH3A1) [µM] | Mode of inhibition of ALDH2 versus varied NAD+ (ALDH2 [1]) | IC50 (ALDH1A1) [µM] | Mode of inhibition of ALDH2 with respect to varied propionaldehyde (ALDH2 [2]) | IC50 (ALDH1A2) [µM] | IC50 (ALDH1B1) [µM] | IC50 (ALDH1A3) [µM] | Emax (ALDH2 [3]) [%]
CCCc1c(C)c2cc3c(C)coc3cc2oc1=O [Compound 1] | > 100 | > 100 | – | – | – | – | – | – | –
CCCc1c(C)c2cc3c(C)c(C)oc3cc2oc1=O [Compound 2] | > 100 | > 100 | competitive | – | – | – | – | – | –
Cc1oc2cc3oc(=O)c(C)c(C)c3cc2c1C [Compound 3] | > 100 | > 100 | competitive | > 100 | non-competitive (mixed-type) | – | – | – | –
COC(=O)C(C)Oc1ccc2c(C)cc(=O)oc2c1 (stereo not drawn) [Compound 4] | > 100 | > 100 | competitive | > 100 | – | > 100 | > 100 | > 100 | –
CCCc1cc(=O)oc2cc3oc(C)c(C)c3cc12 [Compound 7] | – | > 100 | – | > 100 | – | – | – | – | –
Cc1oc2cc3oc(=O)c4ccccc4c3cc2c1C [Compound 9] | – | > 100 | – | > 100 | – | – | – | – | 50 to 60
Cc1oc2cc3oc(=O)c4c(c3cc2c1C)CCCC4 [Compound 10] | – | > 100 | – | – | – | – | – | > 100 | –
